Converted amounts (≈) assume the structure as drawn.
Assays:
[1] = target: T1, EGFR (Homo sapiens, UniProt P00533); assay: Irreversibility test protocol: EGFR autophosphorylation inhibition in intact A431 cells (Western blot); type: cell-based; conditions: for irreversible inhibitory characteristic (irreversible binding to EGFR): A431 cells, EGF stimulation 8 hours after removal of the inhibitor vs immediately after
T1 construct: endogenous in cells; host or cells: A431 human epidermoid vulval carcinoma cells
Protocol: Irreversibility Test Protocol: The inhibitory potency of compounds 1a-c, as well as the irreversible nature of EGFR inhibition thereof were evaluated in intact A431 cells, according to published procedures (Smail et al., 1999). In brief, A431 human epidermoid vulval carcinoma were grown in six-well plates for 48 hours and further maintained in serum-free media for additional 18 hours. Duplicate sets of cells were incubated with increasing concentrations of the tested inhibitor for one hour. One set of the cells was thereafter stimulated with EGF, immediately after removal of the tested inhibitor. Another set of the cells was washed to remove the inhibitor, and EGF stimulation was carried out 8 hours after removal of the inhibitor from the medium. Cell lysates were prepared and loaded onto SDS-PAGE (8% acryl amide) for Western Blot analysis, and the extent of EGFR phosphorylation was evaluated by measuring the signal intensity of the corresponding phosphotyrosine band using a mix of anti-phosphotyrosine antibodies, PY20 (Santa Cruz Biotechnology Inc.) and 4G10 (produced from Su4G10 hybridoma cells). The degree of EGFR phosphorylation was measured for each set of cells and the IC50 values of Compounds 1a-c and 10b, vis-à-vis the level of EGFR's phosphotyrosine content were determined. A minimum of two different assays with similar results were considered. Each experiment was performed in duplicates.
The inhibitory potency of exemplary compounds according to the present embodiments, as well as the extent of their irreversible inhibition of the EGFR were first evaluated in intact A431 cells, using the protocol described hereinabove. The IC50 values were determined by the extent of EGFR phosphorylation at each inhibitor concentration either immediately after or 8 hours post removal of the tested inhibitor from the medium.

[2] = Water solubility determination (HPLC); type: physicochemical; conditions: aqueous buffer, thermodynamic from solid; MOPS buffer pH 7.4, room temperature
Protocol: DMSO (1 ml) and MOPS buffer pH 7.4 (1 ml) were separately added to test tubes containing the tested compound (Compounds 1a-c and 10b, ML04 or ML05), such that for each compound, two test tubes were prepared. The tubes were sonicated at room temperature for 20 minute, left intact for 10 minutes, and were then filtered through a 0.45 μm filter. Each of the DMSO solutions was diluted 10-folds with DMSO. A 50 μl sample of each solution was analyzed by HPLC (using C-18 analytical column, a mixture of 55% CH3CN:45% acetate buffer 0.1 M, pH 3.8, as a mobile phase at a flow rate of 1 ml/minute, and a UV detector operated at 254 nm). Measurements were performed in triplicate.

[3] = Partition coefficient determination (1-octanol/buffer, HPLC); type: physicochemical; conditions: 1-octanol / sodium phosphate buffer 0.1 M, pH 7.4; read-out: Log P (partition coefficient)
Protocol: Partition coefficient determination: Compounds 1a-c and 10b, ML04 and ML05 (3 mg) were dissolved in sodium phosphate buffer (0.1 M, pH 7.4, 5 ml) and 1-octanol (1 ml) and the resulting mixture was vortexed for 2 minutes, filtered, and maintained at room temperature for 10 minutes. The reaction mixture was then centrifuged at 4000 g for 10 minutes. Fifty (50) μl portions were taken from the organic (1-octanol) and from the aqueous (buffer) layers, and were dissolved in 0.45 ml acetonitrile. The samples were analyzed by HPLC system (C-18 analytical column, a mixture of 55% acetonitrile:45% acetate buffer 0.1 M, pH 3.8 as a mobile phase, flow rate of 1 ml/minute). The partition coefficients (Log P) were determined by the concentration ratio of the tested compound in the organic phase and the aqueous phase. Measurements were performed in triplicate.

T1 sequence (P00533 25-1210): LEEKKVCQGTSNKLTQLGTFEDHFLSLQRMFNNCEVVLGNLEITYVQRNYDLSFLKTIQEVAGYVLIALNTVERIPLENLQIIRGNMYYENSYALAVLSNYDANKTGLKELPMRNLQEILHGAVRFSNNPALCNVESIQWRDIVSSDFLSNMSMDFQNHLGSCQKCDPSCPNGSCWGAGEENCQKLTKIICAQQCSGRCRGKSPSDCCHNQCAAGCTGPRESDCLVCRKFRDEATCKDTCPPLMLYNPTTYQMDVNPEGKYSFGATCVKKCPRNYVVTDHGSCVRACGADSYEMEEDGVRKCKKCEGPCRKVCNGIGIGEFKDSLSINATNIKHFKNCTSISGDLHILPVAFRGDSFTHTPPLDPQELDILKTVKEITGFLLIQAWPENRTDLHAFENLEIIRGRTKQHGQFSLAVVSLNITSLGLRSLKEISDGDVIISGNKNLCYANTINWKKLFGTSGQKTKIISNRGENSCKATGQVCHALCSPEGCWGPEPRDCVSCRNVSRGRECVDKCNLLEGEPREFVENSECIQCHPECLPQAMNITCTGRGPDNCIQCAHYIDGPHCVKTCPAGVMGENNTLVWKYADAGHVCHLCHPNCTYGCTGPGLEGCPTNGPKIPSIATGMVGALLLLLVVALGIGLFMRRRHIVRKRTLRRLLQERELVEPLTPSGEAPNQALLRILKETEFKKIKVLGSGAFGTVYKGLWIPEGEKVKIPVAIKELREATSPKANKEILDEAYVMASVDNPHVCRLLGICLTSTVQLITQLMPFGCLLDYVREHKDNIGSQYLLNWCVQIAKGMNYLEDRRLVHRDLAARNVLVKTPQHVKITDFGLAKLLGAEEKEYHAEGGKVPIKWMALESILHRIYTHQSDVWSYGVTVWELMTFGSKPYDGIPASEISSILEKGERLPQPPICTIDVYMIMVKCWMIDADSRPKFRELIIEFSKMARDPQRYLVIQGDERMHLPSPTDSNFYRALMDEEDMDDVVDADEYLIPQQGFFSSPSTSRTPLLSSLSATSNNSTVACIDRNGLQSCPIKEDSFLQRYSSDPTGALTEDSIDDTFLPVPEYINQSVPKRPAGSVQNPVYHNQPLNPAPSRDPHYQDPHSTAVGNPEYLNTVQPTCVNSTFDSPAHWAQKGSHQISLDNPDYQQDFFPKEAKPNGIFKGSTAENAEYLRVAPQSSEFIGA

Row | irreversible inhibitory characteristic (irreversible binding to EGFR) [1] | melting point [°C] | solubility at 20 min [2] [µg/mL] | IC50 ([1]; intact A431 cells, 1 hour incubation with inhibitor, EGF stimulation, read-out: IC50 vis-à-vis the level of EGFR's phosphotyrosine content) [nM] | logP [3] | Structure (SMILES)
1 | irreversibly bind to the EGFR | 167 to 169 |  |  |  | O=C(CCl)Nc1cc2c(Nc3cc(Cl)c(Cl)cc3F)ncnc2cc1OCCOCCF [Compound 1a, 2-Chloro-N-{4-(4,5-Dichloro-2-fluoro-phenylamino)-7-[2-(2-fluoro-ethoxy)-ethoxy]-quinazoline-6-yl}-acetamide]
2 | irreversibly bind to the EGFR | 135 to 137 |  |  |  | O=C(CCl)Nc1cc2c(Nc3cc(Cl)c(Cl)cc3F)ncnc2cc1OCCOCCOCCOCCF [Compound 1b, 2-Chloro-N-[4-(4,5-Dichloro-2-fluoro-phenylamino)-7-(2-{2-[2-(2-fluoro-ethoxy)-ethoxy]-ethoxy}-ethoxy)-quinazoline-6-yl]-acetamide]
3 | irreversibly bind to the EGFR |  |  |  |  | O=C(CCl)Nc1cc2c(Nc3cc(Cl)c(Cl)cc3F)ncnc2cc1OCCOCCOCCOCCOCCOCCF [Compound 1c, 2-Chloro-N-(4-(4,5-Dichloro-2-fluoro-phenylamino)-7-{2-[2-(2-{2-[2-(2-fluoro-ethoxy)-ethoxy]-ethoxy}-ethoxy)-ethoxy]-ethoxy}-quinazoline-6-yl)-acetamide]
4 | irreversible inhibitory characteristic |  | 3.5 (≈ 5.57 µM) | 5 | 3.7 | CN(C)CC=CC(=O)Nc1cc2c(Nc3cc(Cl)c(Cl)cc3F)ncnc2cc1OCCOCCOCCOCCF [Compound 10b, 4-dimethylamino-but-2-enoic acid {4-(4,5-Dichloro-2-fluoro-phenylamino)-7-(2-{2-[2-(2-fluoro-ethoxy)-ethoxy]-ethoxy}-ethoxy)-quinazoline-6-yl}-amide]
5 |  |  | 0.14 (≈ 0.322 µM) |  | 3.9 | CN(C)CC=CC(=O)Nc1ccc2ncnc(Nc3cc(Cl)c(Cl)cc3F)c2c1 [ML04, 4-dimethylamino-but-2-enoic acid [4-(3,4-dichloro-6-fluoro-phenylamino)-quinazoline-6-yl]-amide, reference compound]

Reference: patent US8461166B2, “Polyalkylene glycol derivatives of inhibitors of epidermal growth factor receptor tyrosine kinase” (Hadasit Medical Research Services and Development Ltd., priority 2005, dated 2013)
